{"source": "ChEMBL document CHEMBL3639362", "about": "“Pyrrolopyrazoles, potent kinase inhibitors” (2013)", "biological_target": "Serine/threonine-protein kinase PAK 4 (Homo sapiens, UniProt O96013)", "sequence (O96013 whole entry)": "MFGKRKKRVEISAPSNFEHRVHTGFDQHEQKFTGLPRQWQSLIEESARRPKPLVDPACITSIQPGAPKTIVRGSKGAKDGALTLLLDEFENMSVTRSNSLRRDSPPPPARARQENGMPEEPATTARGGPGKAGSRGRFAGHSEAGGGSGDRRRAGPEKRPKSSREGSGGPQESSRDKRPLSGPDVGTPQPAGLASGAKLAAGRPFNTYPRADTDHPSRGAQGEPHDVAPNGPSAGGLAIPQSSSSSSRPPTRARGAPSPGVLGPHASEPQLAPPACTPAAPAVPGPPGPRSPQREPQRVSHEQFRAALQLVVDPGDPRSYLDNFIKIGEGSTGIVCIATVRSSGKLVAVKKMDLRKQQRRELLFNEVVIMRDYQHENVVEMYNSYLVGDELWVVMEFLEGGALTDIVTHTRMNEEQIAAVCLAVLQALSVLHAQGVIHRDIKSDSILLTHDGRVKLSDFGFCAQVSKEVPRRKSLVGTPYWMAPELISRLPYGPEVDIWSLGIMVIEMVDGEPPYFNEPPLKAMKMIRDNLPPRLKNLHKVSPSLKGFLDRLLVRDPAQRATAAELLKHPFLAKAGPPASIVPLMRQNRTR", "assay": "Enzymatic Assay: The enzymatic activity of PAK4 KD was measured by its ability to catalyzed the transfer of a phosphate residue from a nucleoside triphosphate to an amino acid side chain of a commercially available peptide (amino acid sequence EVPRRKSLVGTPYWM)."}
{"smiles": "CC1(C)c2n[nH]c(Nc3nc(Cl)nc(N4CCC[C@H]4C(N)=O)n3)c2CN1C(=O)NC1C[C@@H]1c1ccccc1", "note": "(stereo partly specified)", "values": [{"measurement": "EC50", "value": "> 4", "unit": "µM"}]}
